Patent US10051861B2, “N-arylamidine-substituted trifluoroethyl sulfide derivatives as acaricides and insecticides” (BAYER CROPSCIENCE AG, priority 2011, dated 2018)
Like-named read-outs stand apart in the source and are kept apart here. Marks after values point to notes of the source that are not given here.

Legend:
[1] = tested on: cattle ticks (Boophilus microplus); test: Boophilus microplus injection test (BOOPMI Inj); format: in vivo; details: for pest or weed control at 0.02 mg: Rhipicephalus microplus, 168 h, read-out: efficacy (laying of fertile eggs)
Description: (§1) Solvent: dimethyl sulfoxide
1 μl of the active compound solution is injected into the abdomen of 5 engorged adult female cattle ticks (Boophilus microplus). The animals are transferred into dishes and kept in a climate-controlled room.
(§2) The activity is assessed after 7 days by laying of fertile eggs. Eggs whose fertility is not visible from the outside are stored in a climate-controlled cabinet until the larvae hatch after about 42 days. An efficacy of 100% means that none of the ticks has laid any fertile eggs; 0% means that all eggs are fertile.

[2] = tested on: green peach aphid (Myzus persicae); test: Myzus persicae spray test (MYZUPE); format: in vivo; details: application rate 500 g/ha, after 6 days
Description: (§3) After 6 days, the effect in % is determined.

[3] = tested on: greenhouse red spider mite (Tetranychus urticae); test: Tetranychus urticae spray test, OP-resistant (TETRUR), bean leaf disks; format: in vivo; details: for pest or weed control at 500 g/ha: Tetranychus urticae, foliar, 144 h, read-out: efficacy (spider mites killed)
Description: as §3

[4] = tested on: cattle ticks (Boophilus microplus) Parkhurst strain, SP-resistant; test: Boophilus microplus dip test (BOOPMI Dip); format: in vivo; details: application rate 100 ppm, after 7 days
Description: Test animals: cattle ticks (Boophilus microplus) Parkhurst strain, SP-resistant
as §1
10 mg of active compound are dissolved in 0.5 ml of dimethyl sulfoxide. To prepare a suitable formulation, the active compound solution is diluted with water to the concentration desired in each case.
This active compound preparation is pipetted into tubes. 8-10 adult engorged female cattle ticks (Boophilus microplus) are transferred into a further tube with holes. The tube is immersed into the active compound formulation, and all ticks are completely wetted. After the liquid has run out, the ticks are transferred on filter disks into plastic dishes and stored in a climate-controlled room.
as §2

[5] = tested on: nematode larvae (Cooperia curticei); test: Cooperia curticei test (COOPCU); format: in vivo; details: application rate 100 ppm, after 5 days
Description: as §1
Vessels containing the active compound preparation of the desired concentration are populated with about 40 nematode larvae (Cooperia curticei).
After 5 days, the kill in % is determined.

[6] = tested on: larvae of the mustard beetle (Phaedon cochleariae); test: Phaedon cochleariae spray test (PHAECO); details: for pest or weed control at 500 g/ha: Phaedon cochleariae, 168 h, read-out: effect (beetle larvae killed); for effect (beetle larvae killed): application rate 500 g/ha, after 7 days
[7] = tested on: larvae of the mustard beetle (Phaedon cochleariae); test: Phaedon test (PHAECO spray treatment); details: application rate 500 g/ha, after 7 days
[8] = tested on: greenhouse red spider mite (Tetranychus urticae); test: Tetranychus test, OP-resistant (TETRUR spray treatment); format: in vivo; details: application rate 500 g/ha, after 6 days
Description: as §3

[9] = logP by HPLC on reversed-phase columns (C 18), EEC Directive 79/831 Annex V.A8; format: physicochemical; details: for logP(HCOOH): pH 2.7; for logP(neutral): pH 7.8; for chromatographic logP: reversed-phase C18 HPLC column
Description: Calibration is carried out using unbranched alkan-2-ones (having from 3 to 16 carbon atoms) with known log P values (the log P values are determined by the retention times using linear interpolation between two successive alkanones).

[10] = tested on: L1 larvae of the Australian sheep blowfly (Lucilia cuprina); test: Lucilia cuprina test (LUCICU); format: in vivo; details: application rate 100 ppm, after 2 days
Description: as §1
About 20 L1 larvae of the Australian sheep blowfly (Lucilia cuprina) are transferred into a test vessel containing minced horsemeat and the active compound preparation of the desired concentration.
After 2 days, the kill in % is determined.

[11] = tested on: greenhouse red spider mite (Tetranychus urticae); test: Tetranychus urticae spray test, OP-resistant (TETRUR), bean plants; format: in vivo; details: after 7 days
Description: Solvents: 7 parts by weight of dimethylformamide
Emulsifier: 2 part by weight of alkylaryl polyglycol ether
If the addition of ammonium salts or/and penetrants is required, these are in each case added in a concentration of 1000 ppm to the solution of the preparation.
Bean plants (Phaseolus vulgaris) which are heavily infested by all stages of the greenhouse red spider mite (Tetranychus urticae) are treated by spraying with the active compound preparation of the desired concentration.

Lucilia cuprina larvae = test: Lucilia cuprina (48 h); format: in vivo; details: application rate 100 ppm, after 48 hours
Description: as §1
10 mg of active compound are dissolved in 0.5 ml of dimethyl sulfoxide. To prepare a suitable formulation, the active compound solution is diluted with water to the concentration desired in each case. About 20 Lucilia cuprina larvae are introduced into a test tube which contains about 1 cm^3 of horse meat and 0.5 ml of the preparation of active compound to be tested. After 48 hours, the efficacy of the active compound preparation is determined as % larvae mortality.

Boophilus microplus = Boophilus microplus test (BOOPMI injection); format: in vivo; design: dose or concentration left out as unconfirmed; details: after 7 days
Description: as §1
The solution of active compound is injected into the abdomen (Boophilus microplus), and the animals are transferred into dishes and kept in a climatized room. The activity is assessed by laying of fertile eggs.
100% means that none of the ticks has laid any fertile eggs.

Meloidogyne incognita = Meloidogyne incognita test (MELGIN); format: in vivo; details: application rate 20 ppm, after 14 days
Description: Solvents: 80.0 parts by weight of acetone
Containers are filled with sand, solution of active compound, Meloidogyne incognita egg/larvae suspension and lettuce seeds. The lettuce seeds germinate and the plants develop. On the roots, galls are formed.
After 14 days, the nematicidal efficacy in % is determined by the formation of galls. 100% means that no galls have been found; 0% means that the number of galls on the treated plants corresponds to the untreated control.

[12] = application rate 20 μg/animal, injection, after 7 days
[13] = application rate 500 g/ha, after 6 days

Cc1cc(F)c(/N=C(/N)c2ccc(F)cc2)cc1SCC(F)(F)F [Ia-116]
pest or weed control at 0.02 mg [1, 12]: 100%
effect (aphids killed) [2]: 90%
pest or weed control at 500 g/ha [3, 13]: 100%

Cc1cc(F)c(/N=C2\CCCN2CC(F)F)cc1[S+]([O-])CC(F)(F)F (stereo not shown) [Ib-33]
pest or weed control at 0.02 mg [1, 12]: 100%
efficacy (laying of fertile eggs) [4]: 100%
pest or weed control at 500 g/ha [3, 13]: 100%

CCN/C(=N\c1cc(SCC(F)(F)F)c(Cl)cc1Cl)c1cccnc1 [Ia-220]
efficacy (kill of larvae) [5]: 100%
pest or weed control at 500 g/ha [3, 13]: 90%

Cc1cc(F)c(/N=C2\CCCN2CC(F)(F)F)cc1[S+]([O-])CC(F)(F)F (stereo not shown) [Ib-115, 2-Fluoro-4-methyl-N-[1-(2,2,2-trifluoroethyl)pyrrolidin-2-ylidene]-5-[(2,2,2-trifluoroethyl)sulfinyl]aniline]
pest or weed control at 500 g/ha [6]: 100%
pest or weed control at 0.02 mg [1]: 100%
efficacy (laying of fertile eggs) [4]: 100%
pest or weed control at 500 g/ha [3]: 100%

CNC(=Nc1cc(SCC(F)(F)F)c(C)cc1F)C(F)(F)F [Ia-13]
efficacy (beetle larvae killed) [7]: 100%
efficacy (spider mites killed) [8]: 100%
effect (beetle larvae killed) [6]: 100%
efficacy (laying of fertile eggs) [1, 12]: 100%
logP(HCOOH) [9]: 3.7
logP(neutral) [9]: 3.71
efficacy (kill of larvae) [10]: 90%
efficacy (spider mites killed) [3, 13]: 100%

Cc1cc(F)c(/N=C2\SCC(=O)N2CC(F)(F)F)cc1[S@+]([O-])CC(F)(F)F [Ib-168]
efficacy (spider mites killed) ([11]; application rate 20 ppm): 100%

Cc1cc(F)c(/N=C(/N)C(F)(F)F)cc1[S+]([O-])CC(F)(F)F (stereo not shown) [Ib-11]
efficacy (beetle larvae killed) [7]: 100%
effect (beetle larvae killed) [6]: 100%
efficacy (laying of fertile eggs) [1, 12]: 100%
logP(HCOOH) [9]: 2.77
logP(neutral) [9]: 2.71
efficacy (kill of larvae) [10]: 100%
effect (% larvae mortality) (Lucilia cuprina larvae): 100%
efficacy (spider mites killed) [3, 13]: 100%
efficacy (laying of fertile eggs) (Boophilus microplus): 100%

Cc1cc(F)c(/N=C2\CCCN2CC(F)(F)F)cc1SCC(F)(F)F [Ia-189, 2-fluoro-4-methyl-N-[1-(2,2,2-trifluoroethyl)pyrrolidin-2-ylidene]-5-[(2,2,2-trifluoroethyl)sulfanyl]aniline]
pest or weed control at 0.02 mg [1]: 100%
chromatographic logP ([9]; pH 2.7, [a] LC-MS, acidic range, pH 2.7, 0.1% aqueous formic acid/acetonitrile, read-out: logP(HCOOH)): 2.32
chromatographic logP ([9]; pH 7.8, [b] LC-MS, neutral range, pH 7.8, 0.001 molar aqueous ammonium bicarbonate/acetonitrile, read-out: logP(neutral)): 4.37
efficacy (laying of fertile eggs) [4]: 100%
pest or weed control at 500 g/ha [3]: 100%

CCNC(=Nc1cc([S+]([O-])CC(F)(F)F)c(C)cc1F)C(F)(F)F (stereo not shown) [Ib-02]
efficacy (beetle larvae killed) [7]: 100%
efficacy (spider mites killed) [8]: 100%
effect (beetle larvae killed) [6]: 100%
efficacy (laying of fertile eggs) [1, 12]: 100%
efficacy (kill of larvae) [10]: 80%
efficacy (spider mites killed) [3, 13]: 100%
nematicidal efficacy (formation of galls) (Meloidogyne incognita): 100%

Cc1cc(C)c([S+]([O-])CC(F)(F)F)cc1/N=C1\SCC(=O)N1C (stereo not shown) [Ib-159]
efficacy (spider mites killed) ([11]; application rate 20 ppm): 80%

Cc1cc(C)c(SCC(F)(F)F)cc1/N=C(\N)C1(Cl)CC1 [Ia-34]
pest or weed control at 0.02 mg [1, 12]: 100%
effect (aphids killed) [2]: 90%
pest or weed control at 500 g/ha [3, 13]: 100%

N/C(=N/c1cc([S@@+]([O-])CC(F)(F)F)c(Cl)cc1Cl)C(F)(F)F [Ib-44]
pest or weed control at 500 g/ha [6]: 100%
pest or weed control at 0.02 mg [1, 12]: 90%
effect (aphids killed) [2]: 100%
efficacy (spider mites killed) ([11]; application rate 100 ppm): 90%

Cc1cc(F)c(/N=C(\NC(C)C(F)(F)F)C2CC2)cc1SCC(F)(F)F (stereo not shown) [Ia-206]
pest or weed control at 0.02 mg [1, 12]: 100%
effect (aphids killed) [2]: 100%
pest or weed control at 500 g/ha [3, 13]: 100%

Cc1cc(C)c(SCC(F)(F)F)cc1N=C(N)C(F)(F)F [Ia-07]
efficacy (spider mites killed) [8]: 100%
logP(HCOOH) [9]: 3.36
logP(neutral) [9]: 3.4
efficacy (spider mites killed) [3, 13]: 100%
nematicidal efficacy (formation of galls) (Meloidogyne incognita): 90%

Cc1cc(F)c(N=C(N)C(F)(F)F)cc1SCC(F)(F)F [Ia-21]
efficacy (laying of fertile eggs) [1, 12]: 100%
logP(neutral) [9]: 3.12^[b]
efficacy (kill of larvae) [10]: 100%
effect (% larvae mortality) (Lucilia cuprina larvae): 100%
efficacy (spider mites killed) [3, 13]: 100%
efficacy (laying of fertile eggs) (Boophilus microplus): 100%
